The test system of assay [1] is PAR1. In words: PI hydrolysis in hippocampal slices. It is filed as cell-based, mouse. An excerpt:
PAR1 is a seven transmembrane G-protein coupled receptor that stimulates G-alpha-q to initiate phosphatidyl inositol (PI) hydrolysis. To ensure that PAR1 is functional in regions of the brain that are subject to ischemic damage in the mouse transient focal ischemia model, we tested the ability of several activators of PAR1 to initiate PI hydrolysis (Chung et al., 1997) in the hippocampus and striatum.
Since tPA activates plasminogen to form plasmin, we tested whether exogenously applied tPA could activate endogenous plasminogen in brain slices to form plasmin and activate PAR1.

The subject of another assay is cortical astrocytes. The assay can be described thus: Astrocyte proliferation by BrdU incorporation. In kind it is cell-based, mouse. As to conditions: for number of BrdU-positive cells: astrocyte cultures from wild type mice, 3 or 30 micromolar, 24 hours. The procedure:
Cortical astrocytes from wild type and PAR1−/− knockout mice were either untreated (control) or treated for 24 hours with a 3 or 30 micromolar concentration of the peptide TFLLR-NH2 (SEQ ID NO: 1), which selectively activates PAR1. Cells were pulse-labeled with BrdU for the final 2 hours of culture.
For orientation: Incorporation of labelled thymidine or its analogues reports DNA synthesis.

The subject of assay [2] is PAR1. The assay can be described thus: Free intracellular calcium in cultured astrocytes (Fluo-3 AM). In kind it is cell-based, mouse. (In general: Calcium assays in cells follow changes in intracellular calcium, usually with a dye or a luminescent sensor.)
Assay [3] deals with NMDA receptor. The assay can be described thus: Whole cell patch recording of NMDA-evoked currents in hippocampal slice CA1 pyramidal neurons. It is filed as cell-based, rat.
Another assay concerns NR1 subunit. The assay can be described thus: NMDA receptor subunit immunoblots of thrombin-treated brain membranes. In kind it is biochemical, rat. The procedure:
NMDA receptor subunit immunoblots. Human embryonic kidney (HEK) cells were maintained in DMEM supplemented with 0.5 mM glutamine, 1 mM pyruvate, penicillin, streptomycin, and 10% fetal bovine serum in a humidified environment with 5% CO2, and transfected with 1 microgram/ml of NR1 or 1:2 microgram/ml NR1:NR2 cDNA. Cells were washed in ice-cold HEPES buffered saline (HBS), scraped on ice, and membranes isolated by centrifugation at 12,000×g. […] Adult rat brain regions were dissected, frozen in liquid nitrogen, homogenized in ice-cold HEPES buffered saline (HBS), centrifuged, and stored at −20° C. Membranes were resuspended in HBS and treated with thrombin or buffer for 30 min at 37° C. Samples were centrifuged, and the membrane pellet resuspended in 2% sodium dodecylsulphate (SDS), 62.5 mM Tris, 10% glycerol, 5% beta-mercaptoethanol, 0.05% bromophenol blue (pH 6.8); some samples were treated with IOU DNase for 10 min at 37° C. SDS/polyacrylamide gel electrophoresis (SDS/PAGE) and protein blotting to Immobilon-P membranes was performed as described (Lau and Huganir, Differential tyrosine phosphorylation of N-methyl-D-aspartate receptor subunits. J Biol Chem 270: 20036-20041, 1995). Membranes were blocked for 30 min in 0.2 M Tris base, 1.37 M NaCl, pH 7.4, containing 5% nonfat dry milk, and incubated overnight at 4° C. in primary antibodies: NR1 mAb54.1 (gift from Dr. S. Heinemann, Salk Institute, La Jolla Calif.), NR1 alt-C-terminal (Upstate Biotechnology, Lake Placid, N.Y.), NR2A C-terminal (Chemicon, Temecula, Calif.), or NR2B C-terminal (Upstate Biotechnology). Membranes were washed 3×, and incubated with HRP-conjugated goat anti-mouse or goat anti-rabbit antibodies (1:10,000), washed 3×, and developed using enhanced chemiluminescence. The percent of receptor cleaved by thrombin was determined using densitometry.
On the technique in general: A western blot detects proteins with antibodies after separation by electrophoresis.

The test system of assay [4] is PAR1. In kind it is cell-based, rat.
Assay [5] deals with NMDA receptor. In words: Two electrode voltage clamp of recombinant NMDA receptors with or without PAR1 in Xenopus oocytes. It is filed as cell-based, Xenopus laevis. The procedure: Expression and recording of NMDA and PAR1 receptor function in Xenopus laevis oocvtes. cRNA was synthesized from linearized template cDNA according to manufacturer specifications (Ambion, Austin, Tex.). Xenopus oocytes were removed from ovaries of female frogs anesthetized with 0.3% 3-aminobenzoic acid ethylester. Groups of 20-30 stage V-VI oocytes were incubated in 292 U/ml Worthington (Freehold, N.J.) Type IV collagenase for 2 hours with slow shaking. The oocytes were rinsed in Barth's solution, and stored at 17° C. in Barth's solution supplemented with 100 microgram/ml gentamycin and 40 microgram/ml streptomycin. Control oocytes were injected with 3 ng NR1 subunit and 7 ng NR2B subunit. Other oocytes were injected with the NMDA receptor subunits plus 3 ng PAR1 cRNA. Two electrode voltage clamp recordings were made 3-7 days post-injection. Oocytes were continually perfused with recording solution (in mM, 90 NaCl, 1 KCl, 10 HEPES, pH 7.4) and held under voltage clamp at −30 to −50 mV with an OC-725B amplifier (Warner Instruments, Hamden, Conn.). Recording solution was supplemented with 1.0 mM CaCl2 during initial impalement of the oocytes and subsequently 0.5 mM BaCl2 during recording to reduce the calcium-activated chloride current endogenous to oocytes. […] NMDA receptor currents were evoked by 20 micromolar glutamate/10 micromolar glycine perfused for 0.5-1 minute. […] Expression of PAR1 protein was verified by a thrombin or SFLLRN-stimulated rapidly desensitizing inward current at −30 mV that reflects the Ca^2+-activated Cl^− current endogenous to the oocyte. To test the ability of thrombin to modify NMDA receptor function in oocytes, recordings of receptor function were made both before and after a 15-60 min incubation in recording solution supplemented with thrombin in Eppendorf tubes at room temperature. […] Oocytes with responses less than 50 nA were not included in the analysis.

The subject of assay [6] is NMDA receptor. The assay can be described thus: Whole cell patch recording of NMDA-evoked currents in hippocampal CA1 pyramidal cells of wild-type and PAR1-/- mice. In kind it is cell-based, mouse. As to conditions: 100 micromolar APV, wild-type and PAR1-/- mice.
Setting [7] is: cultured astrocytes from PAR1-/- knockout mice.
Setting [8] is: cultured astrocytes from wild type mice.

Square brackets hold non-standard residues; d marks the D form. Ends that are not written are not given here. * marks the point of attachment. Phe(4-guanidino) = N=C(N)Nc1ccc(C[C@H](N)C(=O)O)cc1; Phe(4-F) = N[C@@H](Cc1ccc(F)cc1)C(=O)O; trans‑cinnamoyl = O=C(/C=C/c1ccccc1)*

Regarding “N-trans-cinnamoyl-p-fluoroPhe-p-guanidinoPhe-Leu-Arg-Arg-NH2 ({trans‑cinnamoyl}-[Phe(4-F)][Phe(4-guanidino)]LRR-NH2; SMILES CC(C)C[C@H](NC(=O)[C@H](Cc1ccc(NC(=N)N)cc1)NC(=O)[C@H](Cc1ccc(F)cc1)NC(=O)/C=C/c1ccccc1)C(=O)N[C@@H](CCCNC(=N)N)C(=O)N[C@@H](CCCNC(=N)N)C(N)=O) [PAR1 antagonist peptide, reference compound]”, the “inhibition of PI hydrolysis produced by thrombin and plasmin” value in the assay with PAR1 [1] (pre-incubation with antagonist peptide) was “inhibited PI hydrolysis”.

“TFLLR-NH2 [specific PAR1 agonist peptide]”: in the assay with PAR1 [1] (wild type hippocampus / hippocampal slices), the PI hydrolysis result is “increased PI hydrolysis”. The “number of BrdU-positive cells” value in the assay on cortical astrocytes is reported as “increases the number of BrdU-positive cells”; with cortical astrocytes (listed as TFLLR), “can stimulate astrocyte proliferation”. Moreover, the results for the free intracellular calcium result with PAR1 [2] (setting [7]) and in the assay on PAR1 [2] (setting [8]) were “does not increase free intracellular calcium” and “increases free intracellular calcium”, respectively.

For hirudin [reference compound], the “potentiation by thrombin of NMDA responses in presence of hirudin” value with NMDA receptor [3] (3 U/ml thrombin + 100 ATU hirudin, average potentiation 12-19 min post treatment, n=5) is recorded as 0.96±0.23 fold. In the assay with NR1 subunit (striatal membranes, 100 ATU hirudin), the “block of NR1 cleavage by 30 nM thrombin” value is “blocked cleavage”.

As to `NC(N)=NCCC[C@H](NC(=O)[C@@H]1CCCN1C(=O)[C@H](N)Cc1ccccc1)C(=O)CCl` [PPACK, D-Phe-Pro-Arg-chloromethylketone], the “response magnitude to thrombin (F/Fo) with PPACK” value with PAR1 [4] came out at 1.1±0.04 fold.

Turning to “bisindolylmaleimide [reference compound]”, in the assay with NMDA receptor [3] (BIS 10 microM in ACSF, 30 nM (3 U/ml) thrombin, n=10), the “potentiation of NMDA receptor currents by thrombin in presence of BIS” value amounted to 1.20±0.13 fold. Besides, the “NMDA responses during preapplication of BIS” value in the assay on NMDA receptor [3] (BIS alone) was “unchanged”.

With SFLLRN [reference compound], in the assay on NMDA receptor [3] (30 micromolar SFLLRN, n=9), the “potentiation of the response to pressure applied NMDA plus glycine” value is on record as 1.76±0.19 fold. Also, the “stimulation of NR1 cleavage” value with NR1 subunit (0.1-1 mM SFLLRN) is “did not stimulate cleavage”. Further, in the assay on NMDA receptor [5] (NR1-1a/NR2B plus PAR1, 10-30 micromolar SFLLRN, n=9), the “potentiation of NMDA receptor current after SFLLRN stimulation of PAR1” value worked out at 1.41±0.11 fold. Further, the “SFLLRN potentiation of NR1-1a/NR2A receptors” value in the assay on NMDA receptor [5] (oocytes with PAR1, 10-30 micromolar SFLLRN, n=6) was 1.85±0.1 fold. Moreover, the “Fluo-3 fluorescence in soma and dendrites” value with PAR1 [4] (3 nM thrombin or 10 micromolar SFLLRN, TTX/APV present, subset of neurons) is reported as “robust increase”.

Turning to pertussis toxin, the “inhibition of PAR1-induced astrocyte proliferation” value with cortical astrocytes (24-hour pre-treatment, counting of BrdU-positive cells) is listed as “could be inhibited”.

Consider `Nc1ncnc2c1ncn2[C@@H]1O[C@H](COP(=O)(O)OP(=O)(O)OP(=O)(O)O)[C@@H](O)[C@H]1O` [ATP], for which the free intracellular calcium result in the assay on PAR1 [2] (setting [7]) and in the assay on PAR1 [2] (setting [8]) was “increases free intracellular calcium” throughout.

In the case of `N[C@H](CCCP(=O)(O)O)C(=O)O` [APV, D-2-amino-5-phosphonovaleric acid, reference compound], the “block of responses to NMDA/glycine” value in the assay on NMDA receptor [3] (100 micromolar APV) is reported as “blocked the response”. For the same compound, the “block of NMDA receptor response following thrombin treatment” value in the assay with NMDA receptor [6] was “abolished”.

The values above are taken from patent publication US20080125498A1, “TREATMENT OF NEURODEGENERATIVE DISEASES AND CONDITIONS USING PAR1 ANTAGONISTS” (priority 2001, published 2008).
